# Reference: patent US20260216232A1, “SEVUPARIN FOR THE TREATMENT OF CHRONIC KIDNEY DISEASE” (Modus Therapeutics AB, priority 2022, published 2026)
# Where two headings read alike, the source gives them in different places. Marks after values point to notes of the source that are not given here.
# Columns and labels:
# [1] = system: Kidney Disease and Anemia of Kidney Disease (KD) Mouse Model; assay: Anemia of CKD mouse model (adenine rich diet), Example 2: blood and serum analysis, body weight; type: in vivo, C57BL/6J male mice
# From the text: (§1) All experimental procedures were approved by the Animal Care and Use Committee of University of Brescia. All animals were maintained on normal diet (“Chow” or Standard diet, 4RF21, obtained from Mucedola s.r.l) if not specified otherwise as part of the “Anemia of Chronic Kidney Disease (CKD) mouse model” experiment as described below.
# (§2) Animals. The C57BL/6J male mice were purchased from Envigo RMS S.r.l.
# (§3) Kidney damage, kidney disease and anemia were induced by an adenine high phosphorus diet denoted as “adenine rich diet” (ARD) (0.2% Adenine; 0.9% Phosphorus; 0.6% Calcium; 20% Casein; Cod. S1102-E750 (purchased from Charles River, Manufacturer: Ssniff Spezialdiäten GmbH).
# (§4) ARD was fed to C57BL/6J male mice having reached an age of five-weeks. […] All animals were maintained on ARD or normal diet (Standard diet, 4RF21, Mucedola s.r.l), at timings and extents described in detail for each experiment below. Groups of mice were also kept under normal diet (Standard diet) as healthy control group, for each experiment. Mice had access to food and diet ad libitum.
# (§5) Adenine rich diet (ARD) (0.2% Adenine; 0.9% Phosphorus; 0.6% Calcium; 20% (Ssniff Spezialdiäten GmbH), sevuparin 10 mg/kg (Opocrin S.p.A., Apotek Produktion & Laboratorier AB, subcutaneously administered, sc), erythropoietin (EPO, Darbepoietin alfa, Aranesp, AMGEN INC.) intraperitoneally adminstered, ip)
# (§6) The hematological parameters hemoglobin (Hb) and hematocrit (Ht) were analyzed using the Hemo Vet Instrument (Infratech) by collecting a single drop of blood from the dorsal pedal vein. The animals weight were monitored weekly in the morning at the following time points of treatment: At start of treatment (P0); after one week of treatment (T1); after two weeks of treatment (T2); after three weeks of treatment (T3); after four weeks of treatment (T4); after five weeks of treatment (T5); after six weeks of treatment (T6); after seven weeks of treatment (T7); after eight weeks of treatment (T8); and after nine weeks of treatment (T9).
# (§7) Reticulocyte hemoglobin content (Ret-He), serum hepcidin and serum creatinine (analysis performed by Izler Institute) were analyzed at the end of each experiment)
# (§8) Mice were sacrificed at the indicated time points and blood and kidneys were collected for analysis at the end-point of each experiment.
# (§9) At the end-point, mouse serum hepcidin was quantified using ELISA kit (Cod. SKU #HMC-001; Intrinsic LifeScience).
# (§10) Serum creatinine and blood Reticulocytes-hemoglobin (Ret-He) were analyzed by IZLER Institute (Istituto Zooprofilattico Sperimentale della Lombardia e Dell′Emilia Romagna), using standard procedures.
# ARD Pre-Treatment for 9 Weeks Followed by 2 Weeks Treatment with Either Control, Sevuparin, Erythropoietin (EPO) or a Combination of EPO and Sevuparin, Followed by 7 Weeks Recovery without ARD but with Maintained Treatments.
# (§11) C57BL/6J male mice were exposed to ARD pretreatment for 9 weeks followed by 2 weeks of randomized allocation to treatments as defined below still with maintained ARD exposure, after which ARD was omitted but treatments were maintained during 7 weeks of recovery. One group of mice was given normal diet (no ARD) for the entire experiment, as healthy control. • a) Treatment with control: mice treated with PBS s.c. every day for 2+7 weeks. • b) Treatment with sevuparin: mice treated with 10 mg/kg Sevuparin s.c. every day for 2+7 weeks. • c) Treatment with […]: mice treated with 50 IU EPO i.p. twice a week for 2+7 weeks. • d) Treatment with EPO+sevuparin: mice treated with 50 IU EPO i.p. twice a week and 10 mg/kg Sevuparin s.c. every day for 2+7 weeks.
# Hemoglobin (Hb), hematocrit (Ht), weigh (wt), serum-creatitine (S-crea), reticulocyte hemoglobin (Ret-He) content and serum-hepcidin (nM) was measured in the mice.
# mouse kidneys [2] = settings: 3 weeks treatment, 20x magnification, compared to kidneys without sevuparin
# Description: (§12) C57BL/6J male mice were exposed to ARD pretreatment for 9 weeks followed by 3 weeks of randomized allocation to treatments as defined below still with maintained ARD exposure. One group of mice was given normal diet (no ARD) for the entire experiment, as healthy control. • a) Treatment with control: mice treated with PBS s.c. every day for 3 weeks. • b) Treatment with sevuparin: mice treated with 10 mg/kg Sevuparin s.c. every day for 3 weeks.
# mouse kidneys [3] = assay: Example 2: macroscopic and histological status of kidneys (H&E, Sirius Red); type: in vivo, C57BL/6J male mice
# Description: as §11
# [4] = system: Kidney Disease and Anemia of Kidney Disease (KD) Mouse Model
# From the text: as §1, §2, §3, §4, §5, §6, §7, §8, §9, §10
# ARD Pretreatment for 9 Weeks Followed by 3 Weeks Treatment with Either Control or Sevuparin
# as §12
# factor IIa = settings: definition of sevuparin; no test described; cited from earlier work
# [5] = system: Kidney Disease and Anemia of Kidney Disease (KD) Mouse Model; assay: Anemia of CKD mouse model (adenine rich diet), Example 3: blood and serum analysis, body weight; type: in vivo, C57BL/6J male mice
# From the text: as §1, §2, §3, §4, §5, §6, §7, §8, §9, §10
# ARD Pretreatment for 5.5 Weeks Followed by 3 or 6 Weeks Treatment with Control, Sevuparin, Erythropoietin (EPO), or a Combination of EPO and Sevuparin
# C57BL/6J male mice were exposed to ARD pretreatment for 5.5 weeks followed by either 3 or 6 weeks of randomized allocation to treatments as defined below still with maintained ARD exposure. One group of mice was given normal diet (no ARD) for the entire experiment, as healthy control. • a) Treatment control: mice treated with PBS s.c. every day for 3 and 6 weeks respectively. • b) Treatment with sevuparin: mice treated with 10 mg/kg Sevuparin s.c. every day for 3 and 6 weeks respectively. • c) Treatment with EPO: mice treated with 50 IU EPO i.p. twice a week for 3 weeks and mice treated with 50 IU EPO i.p. twice a week for 3 weeks followed by treatment with 25 IU EPO i.p. once a week for the subsequent 3 weeks. • d) Treatment with EPO+sevuparin: mice treated with 10 mg/kg sevuparin s.c. every day and 50 IU EPO i.p. twice a week for 3 weeks and mice treated with 10 mg/kg sevuparin s.c. every day and 50 IU EPO i.p. twice a week for the first 3 weeks followed by treatment with 10 mg/kg sevuparin s.c. every day and 25 IU EPO i.p. once a week for the subsequent 3 weeks.
# factor Xa = settings: definition of sevuparin; no test described; cited from earlier work
# [6] = 2+7 weeks treatment, compared to mice without any treatment / other treatment groups
# [7] = ARD 9 weeks, then 2 weeks treatment on ARD + 7 weeks without ARD, sevuparin 10 mg/kg s.c. every day, EPO 50 IU i.p. twice a week, mean
# [8] = 3 weeks treatment, compared to mice not treated with sevuparin
# [9] = ARD 9 weeks, then sevuparin 10 mg/kg s.c. every day for 3 weeks with maintained ARD, mean
# [10] = ARD 5.5 weeks then treatment with maintained ARD
# [11] = ARD 5.5 weeks, then 3 or 6 weeks treatment with maintained ARD (time point not given), sevuparin 10 mg/kg s.c. every day, EPO 50 IU i.p. twice a week (25 IU once a week for subsequent 3 weeks), mean
substance,measurement,setting,value
sevuparin,"serum level of hepcidin, in words",[1]; 2+7 weeks treatment,markedly reduced
same,"blood level of reticulocyte hemoglobin (Ret-HE), in words",[1]; [6],increased
same,"body weight (wt), in words",[1]; [6],increased
same,"hematocrit (Ht), in words",[1]; [6],increased
same,"serum level of creatinine (s-Crea), in words",[1]; [6],reduced
same,Hb,[1]; [7],9.45^(3) g/dL
same,Ht,[1]; [7],27.75^(8) %
same,Ret-He,[1]; [7],15.78^(23) pg
same,S-Crea,[1]; [7],0.78^(18) mg/dL
same,S-Hepcidin,[1]; [7],22.32^(28) nM
same,Wt,[1]; [7],25.75^(13) g
same,effect on the micrographs of the mouse kidneys (FIG. 1G),mouse kidneys [2],positive effect
same,"kidney damage, H&E staining (FIG. 2B)","mouse kidneys [3]; 40x magnification, 11 weeks of adenine diet, compared to the untreated control",reduced the damage
same,"collagen deposits (fibrosis), Sirius Red Staining (FIG. 2B)","mouse kidneys [3]; 40x magnification, compared to AD 11 weeks+PBS",reduction of the collagen deposits
same,"physical status of the mouse kidneys, macroscopic photographs (FIG. 2A)",mouse kidneys [3]; compared to mouse kidneys that had not received the same therapy,"substantially less cysts, more normal colour and a more homogenous appearance"
same,"Hematocrit levels, in words",[4]; [8],increased
same,"Hemoglobin blood levels, in words",[4]; [8],increased
same,"blood level of reticulocyte-hemoglobin (Ret-He), in words",[4]; [8],increased
same,"body weight, in words",[4]; [8],gained body weight
same,"serum creatinine level, in words",[4]; [8],increased
same,"serum level of hepcidin, in words",[4]; [8],reduced
same,S-Hepcidin,"[4]; ARD 9 weeks, then sevuparin 10 mg/kg s.c. every day for 3 weeks with maintained ARD, ELISA, mean",36.83^(18) nM
same,Hb,[4]; [9],10.80^(3) g/dL
same,Ht,[4]; [9],31.67^(6) %
same,Ret-He,[4]; [9],14.33^(15) pg
same,S-Crea,[4]; [9],0.73^(12) mg/dL
same,Wt,[4]; [9],15.00^(9) g
same,antifactor 11a activity,factor IIa,up to 10 IU/mg
same,"blood level of hemoglobin (Hb), in words",[5]; [10],did not increase
same,"body weight (wt), in words",[5]; [10],did not increase
same,"hematocrit (Ht), in words",[5]; [10],did not increase
same,"serum level of creatinine (s-Crea), in words","[5]; ARD 5.5 weeks then treatment with maintained ARD, compared to mice without any treatment",reduced
same,Hb,[5]; [11],9.77^(3) g/dL
same,Ht,[5]; [11],28.67^(8) %
same,Ret-He,[5]; [11],14.45^(23)** pg
same,S-Crea,[5]; [11],0.82^(18) mg/dL
same,Wt,[5]; [11],17.60^(13) g
same,impact on the serum level of hepcidin (FIG. 3A),[5]; at 3 weeks treatment,beneficial impact
same,beneficial impact on the serum level of hepcidin vs control (FIG. 3B),[5]; at 6 weeks treatment,no longer present
same,antifactor Xa activity,factor Xa,up to 10 IU/mg
